The values below come from patent US20240002388A1, “PYRIMIDINONE COMPOUNDS AND USES THEREOF” (HUTCHISON MEDIPHARMA LIMITED, priority 2020, published 2024).

In general, IC50 refers to the concentration at which inhibition is half-maximal.

Sequence of RIPK1 recombination protein (Q13546 other isoform, or with tags, fused parts or gaps): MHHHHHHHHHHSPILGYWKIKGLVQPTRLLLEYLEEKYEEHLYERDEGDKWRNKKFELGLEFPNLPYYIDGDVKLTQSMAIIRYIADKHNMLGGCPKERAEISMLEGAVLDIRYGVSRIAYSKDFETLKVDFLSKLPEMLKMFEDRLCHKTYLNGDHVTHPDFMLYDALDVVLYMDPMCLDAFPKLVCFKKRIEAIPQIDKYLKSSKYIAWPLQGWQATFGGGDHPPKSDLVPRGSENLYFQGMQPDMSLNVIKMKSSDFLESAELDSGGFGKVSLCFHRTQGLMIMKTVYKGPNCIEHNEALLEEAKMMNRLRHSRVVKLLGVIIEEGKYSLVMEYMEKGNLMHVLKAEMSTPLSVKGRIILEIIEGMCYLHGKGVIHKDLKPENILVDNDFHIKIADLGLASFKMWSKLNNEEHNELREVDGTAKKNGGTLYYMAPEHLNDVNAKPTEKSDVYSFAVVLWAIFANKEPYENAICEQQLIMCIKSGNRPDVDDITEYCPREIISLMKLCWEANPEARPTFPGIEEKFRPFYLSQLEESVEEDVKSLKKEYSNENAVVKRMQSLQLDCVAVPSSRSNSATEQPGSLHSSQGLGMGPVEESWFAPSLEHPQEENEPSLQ

In this assay the target is RIPK1 recombination protein (Homo sapiens (Human), UniProt Q13546). As to the kind of experiment: RIPK1 kinase activity assay (ADP-Glo). In kind it is biochemical. The settings on record: RIPK1 kinase activity, ADP-Glo, 10 μM ATP. The procedure, abridged:
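GST-purified recombinant human RIPK1 (40 nM final) with 10 μM ATP in NaCl/MgCl2/BSA/CHAPS/DTT kinase buffer, 3 h at room temperature; compounds at 10 to 0.005 μM (3-fold). ADP formed measured by ADP-Glo luminescence; inhibition normalized to no-enzyme and no-inhibitor controls, IC50 by curve fit.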
For `CC(C)n1ncc2cnc(C(=O)NC3(c4ccc(-c5cncn(CC6CC6)c5=O)cc4F)CC3)nc21` [Compound 74], the IC50 amounted to 62 nM.

Turning to `CC(C)n1ncc2cnc(C(=O)NC3(c4ccc(-c5cncn(CC6CC6)c5=O)c(F)c4)CC3)nc21` [Compound 75], the IC50 was found to be 51 nM.

For `C[C@@H](n1cncc(-c2ccc(C3(NC(=O)c4ncc5cnn(CC6CC6)c5n4)CC3)c(F)c2)c1=O)C(F)(F)F` [Compound 76], the IC50 is 51 nM.

In the case of `CC(C)n1ncc2cnc(C(=O)NC3(c4ccc(-c5cncn(C6CCOCC6)c5=O)cc4)CC3)nc21` [Compound 77], the IC50 stood at 42 nM.

For the compound `CC(C)n1ncc2cnc(C(=O)NC3(c4ccc(-c5cncn(C6(C)CC6)c5=O)cc4)CC3)nc21` [Compound 78], the IC50 was determined as 33 nM.

In the case of `CC(C)n1ncc2cnc(C(=O)NC3(c4ccc(-c5cncn(C6(C)CCC6)c5=O)cc4)CC3)nc21` [Compound 79], the IC50 is 21 nM.

For the compound `CC(C)n1ncc2cnc(C(=O)NC3(c4ccc(-c5cncn([C@H](C)C6CC6)c5=O)cc4)CC3)nc21` [Compound 84, (R)—N-(1-(4-(1-(1-cyclopropylethyl)-6-oxo-1,6-dihydropyrimidin-5-yl)phenyl)cyclopropyl)-1-i-propyl-1H-pyrazolo[3,4-d]pyrimidine-6-carboxamide], the IC50 is 45 nM.

In the case of `CC(C)n1ncc2cnc(C(=O)NC3(c4ccc(-c5cncn([C@@H](C)C6CC6)c5=O)cc4)CC3)nc21` [Compound 85, (S)—N-(1-(4-(1-(1-cyclopropylethyl)-6-oxo-1,6-dihydropyrimidin-5-yl)phenyl)cyclopropyl)-1-i-propyl-1H-pyrazolo[3,4-d]pyrimidine-6-carboxamide], the IC50 was 30 nM.

For the compound `CC(C)n1ncc2cnc(C(=O)NC3(c4ccc(-c5cncn(CC6(C)CC6)c5=O)cc4)CC3)nc21` [Compound 86], the IC50 worked out at 14 nM.

In the case of `CC(C)n1ncc2cnc(C(=O)NC3(c4ccc(-c5cncn([C@H]6C[C@H](F)C6)c5=O)cc4)CC3)nc21` [Compound 87, N-(1-(4-(1-(trans-3-fluorocyclobutyl)-6-oxo-1,6-dihydropyrimidin-5-yl)phenyl)cyclopropyl)-1-i-propyl-1H-pyrazolo[3,4-d]pyrimidine-6-carboxamide], the IC50 was 41 nM.

Regarding `CC(C)n1ncc2cnc(C(=O)NC3(c4ccc(-c5cncn([C@H]6C[C@@H](F)C6)c5=O)cc4)CC3)nc21` [Compound 88, N-(1-(4-(1-(cis-3-fluorocyclobutyl)-6-oxo-1,6-dihydropyrimidin-5-yl)phenyl)cyclopropyl)-1-i-propyl-1H-pyrazolo[3,4-d]pyrimidine-6-carboxamide], the IC50 worked out at 41 nM.

Turning to `CC(C)n1cncc(-c2ccc(C3(NC(=O)c4ncc5cnn([C@H](C)C6CC6)c5n4)CC3)cc2)c1=O` [Compound 89, (R)-1-(1-cyclopropylethyl)-N-(1-(4-(1-i-propyl-6-oxo-1,6-dihydropyrimidin-5-yl)phenyl)cyclopropyl)-1H-pyrazolo[3,4-d]pyrimidine-6-carboxamide], the IC50 turned out to be 48 nM.

Turning to `CC(C)n1cncc(-c2ccc(C3(NC(=O)c4ncc5cnn([C@@H](C)C6CC6)c5n4)CC3)cc2)c1=O` [Compound 90, (S)-1-(1-cyclopropylethyl)-N-(1-(4-(1-i-propyl-6-oxo-1,6-dihydropyrimidin-5-yl)phenyl)cyclopropyl)-1H-pyrazolo[3,4-d]pyrimidine-6-carboxamide], the IC50 stood at 54 nM.

As to `CC(C)n1cncc(-c2ccc(C3(NC(=O)c4ncc5cnn(C(C)C)c5n4)CC3)c(F)c2Cl)c1=O` [Compound 91], the IC50 was found to be 72 nM.

As to `CC(C)n1cncc(-c2cc(F)c(C3(NC(=O)c4ncc5cnn(C(C)C)c5n4)CC3)c(F)c2)c1=O` [Compound 92], the 50% inhibitory concentration (IC50) is 104 nM.

As to `CC(C)n1cncc(-c2ccc(C3(NC(=O)c4ncc5cnn(C(C)C)c5n4)CC3)c(F)c2F)c1=O` [Compound 93], the IC50 turned out to be 35 nM.

Consider `CC(C)n1ncc2cnc(C(=O)NC3(c4cc(F)c(-c5cncn(CC6CC6)c5=O)cc4F)CC3)nc21` [Compound 94], for which the concentration for half-maximal inhibition (IC50) was determined as 27 nM.

Regarding `CC(C)n1ncc2cnc(C(=O)NC3(c4ccc(-c5cncn(CC6CC6)c5=O)c(F)c4F)CC3)nc21` [Compound 95], the IC50 stood at 28 nM.
